Measured values reported in PubChem BioAssay (NCI).
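Interpolation was linear, between the two tested concentrations surrounding the appropriate level; five concentrations were tested over 48 hours in 96-well plates. TGI: total growth inhibition.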

Experiments:
Assay in all cases: NCI tumour cell line growth inhibition, 48 h
M19-MEL melanoma = test system: M19-MEL melanoma
A498 renal = test system: A498 renal
HCT-116 colon = test system: HCT-116 colon
DMS 273 small cell lung = test system: DMS 273 small cell lung
SNB-78 CNS = test system: SNB-78 CNS
786-0 renal = test system: 786-0 renal
U251 CNS = test system: U251 CNS
EKVX NSCLC = test system: EKVX NSCLC
UO-31 renal = test system: UO-31 renal
HCT-15 colon = test system: HCT-15 colon
SN12C renal = test system: SN12C renal
RPMI-8226 leukemia = test system: RPMI-8226 leukemia
NCI-H226 lung = test system: NCI-H226 lung
HCC-2998 colon = test system: HCC-2998 colon
A549 NSCLC = test system: A549 NSCLC
MALME-3M melanoma = test system: MALME-3M melanoma
NCI-H522 lung = test system: NCI-H522 lung
KM12 colon = test system: KM12 colon
IGROV1 ovarian = test system: IGROV1 ovarian
HL-60(TB) leukemia = test system: HL-60(TB) leukemia
SK-MEL-5 melanoma = test system: SK-MEL-5 melanoma
SNB-19 CNS = test system: SNB-19 CNS
OVCAR-8 ovarian = test system: OVCAR-8 ovarian
UACC-62 melanoma = test system: UACC-62 melanoma
MOLT-4 leukemia = test system: MOLT-4 leukemia
RXF 393 renal = test system: RXF 393 renal
M14 melanoma = test system: M14 melanoma
OVCAR-5 ovarian = test system: OVCAR-5 ovarian
SW-620 colon = test system: SW-620 colon
HOP-62 NSCLC = test system: HOP-62 NSCLC
SK-OV-3 ovarian = test system: SK-OV-3 ovarian
HT29 colon = test system: HT29 colon
UACC-257 melanoma = test system: UACC-257 melanoma
SK-MEL-2 melanoma = test system: SK-MEL-2 melanoma
LOX IMVI melanoma = test system: LOX IMVI melanoma
ACHN renal = test system: ACHN renal
SK-MEL-28 melanoma = test system: SK-MEL-28 melanoma
SF-268 CNS = test system: SF-268 CNS
K-562 leukemia = test system: K-562 leukemia
SR leukemia = test system: SR leukemia
KM20L2 colon = test system: KM20L2 colon
RXF-631 renal = test system: RXF-631 renal
DLD-1 colon = test system: DLD-1 colon
NCI-H460 lung = test system: NCI-H460 lung
LXFL 529 NSCLC = test system: LXFL 529 NSCLC
SF-539 CNS = test system: SF-539 CNS
OVCAR-3 ovarian = test system: OVCAR-3 ovarian
SNB-75 CNS = test system: SNB-75 CNS
CAKI-1 renal = test system: CAKI-1 renal
SF-295 CNS = test system: SF-295 CNS
OVCAR-4 ovarian = test system: OVCAR-4 ovarian
DMS 114 small cell lung = test system: DMS 114 small cell lung
NCI-H23 lung = test system: NCI-H23 lung
HS 578T breast = test system: HS 578T breast
PC-3 prostate = test system: PC-3 prostate
HOP-18 NSCLC = test system: HOP-18 NSCLC
HOP-92 NSCLC = test system: HOP-92 NSCLC
MDA-MB-231 breast = test system: MDA-MB-231 breast
MCF7 breast = test system: MCF7 breast
DU-145 prostate = test system: DU-145 prostate
CCRF-CEM leukemia = test system: CCRF-CEM leukemia
MDA-N = test system: MDA-N
TK-10 renal = test system: TK-10 renal
BT-549 breast = test system: BT-549 breast
COLO 205 colon = test system: COLO 205 colon
MDA-MB-435 = test system: MDA-MB-435

## c1ccc2c(c1)cc1n2CC2CN=NC12 (configuration not stated)
M19-MEL melanoma
  TGI: > 100 µM
A498 renal
  TGI: > 100 µM
HCT-116 colon
  TGI: > 100 µM
DMS 273 small cell lung
  TGI: > 100 µM
SNB-78 CNS
  TGI: > 100 µM
786-0 renal
  TGI: > 100 µM
U251 CNS
  TGI: > 100 µM
EKVX NSCLC
  TGI: > 100 µM
UO-31 renal
  TGI: > 100 µM
HCT-15 colon
  TGI: > 100 µM
SN12C renal
  TGI: > 100 µM
RPMI-8226 leukemia
  TGI: > 100 µM
NCI-H226 lung
  TGI: > 100 µM
HCC-2998 colon
  TGI: > 100 µM
A549 NSCLC
  TGI: > 100 µM
MALME-3M melanoma
  TGI: > 100 µM
NCI-H522 lung
  TGI: > 100 µM
KM12 colon
  TGI: > 100 µM
IGROV1 ovarian
  TGI: > 100 µM
HL-60(TB) leukemia
  TGI: > 100 µM
SK-MEL-5 melanoma
  TGI: > 100 µM
SNB-19 CNS
  TGI: > 100 µM
OVCAR-8 ovarian
  TGI: > 100 µM
UACC-62 melanoma
  TGI: > 100 µM
MOLT-4 leukemia
  TGI: > 100 µM
RXF 393 renal
  TGI: > 100 µM
M14 melanoma
  TGI: > 100 µM
OVCAR-5 ovarian
  TGI: > 100 µM
SW-620 colon
  TGI: > 100 µM
HOP-62 NSCLC
  TGI: > 100 µM
SK-OV-3 ovarian
  TGI: > 100 µM
HT29 colon
  TGI: > 100 µM
UACC-257 melanoma
  TGI: > 100 µM
SK-MEL-2 melanoma
  TGI: > 100 µM
LOX IMVI melanoma
  TGI: > 100 µM
ACHN renal
  TGI: > 100 µM
SK-MEL-28 melanoma
  TGI: > 100 µM
SF-268 CNS
  TGI: > 100 µM
K-562 leukemia
  TGI: > 100 µM
SR leukemia
  TGI: > 100 µM
KM20L2 colon
  TGI: > 100 µM
RXF-631 renal
  TGI: > 100 µM
DLD-1 colon
  TGI: > 100 µM
NCI-H460 lung
  TGI: > 100 µM
LXFL 529 NSCLC
  TGI: > 100 µM
SF-539 CNS
  TGI: > 100 µM
OVCAR-3 ovarian
  TGI: > 100 µM
SNB-75 CNS
  TGI: > 100 µM
CAKI-1 renal
  TGI: > 100 µM
SF-295 CNS
  TGI: > 100 µM
OVCAR-4 ovarian
  TGI: > 100 µM

## O=C1C(CN2CCOCC2)CCCC1CN1CCOCC1 (configuration not stated)
M19-MEL melanoma
  TGI: 17.3 µM
A498 renal
  TGI: 42.3 µM
HCT-116 colon
  TGI: 2.83 µM
DMS 273 small cell lung
  TGI: 19.4 µM
SNB-78 CNS
  TGI: 5.02 µM
786-0 renal
  TGI: 2.61 µM
U251 CNS
  TGI: 45 µM
DMS 114 small cell lung
  TGI: 11.4 µM
NCI-H23 lung
  TGI: 16.9 µM
EKVX NSCLC
  TGI: 10.7 µM
UO-31 renal
  TGI: 18.9 µM
HCT-15 colon
  TGI: 3.2 µM
SN12C renal
  TGI: 7.71 µM
RPMI-8226 leukemia
  TGI: 2.34 µM
NCI-H226 lung
  TGI: 40.3 µM
HCC-2998 colon
  TGI: 10.3 µM
A549 NSCLC
  TGI: 55.4 µM
MALME-3M melanoma
  TGI: 2.04 µM
HS 578T breast
  TGI: 75.9 µM
NCI-H522 lung
  TGI: 0.156 µM
KM12 colon
  TGI: 17.8 µM
IGROV1 ovarian
  TGI: 17.3 µM
HL-60(TB) leukemia
  TGI: 1.78 µM
SK-MEL-5 melanoma
  TGI: 23.9 µM
SNB-19 CNS
  TGI: 45.7 µM
PC-3 prostate
  TGI: 28.9 µM
OVCAR-8 ovarian
  TGI: 9.31 µM
UACC-62 melanoma
  TGI: 14.5 µM
MOLT-4 leukemia
  TGI: 2.33 µM
RXF 393 renal
  TGI: 4.14 µM
M14 melanoma
  TGI: 7.1 µM
OVCAR-5 ovarian
  TGI: 36.6 µM
SW-620 colon
  TGI: 0.911 µM
HOP-62 NSCLC
  TGI: > 100 µM
SK-OV-3 ovarian
  TGI: 51.8 µM
HT29 colon
  TGI: 4.16 µM
UACC-257 melanoma
  TGI: 5.72 µM
SK-MEL-2 melanoma
  TGI: 16.3 µM
LOX IMVI melanoma
  TGI: 8.98 µM
ACHN renal
  TGI: 3.53 µM
SK-MEL-28 melanoma
  TGI: 3.83 µM
HOP-18 NSCLC
  TGI: 3.2 µM
SF-268 CNS
  TGI: 43.3 µM
HOP-92 NSCLC
  TGI: 1.97 µM
MDA-MB-231 breast
  TGI: 19.8 µM
MCF7 breast
  TGI: 1.57 µM
K-562 leukemia
  TGI: 6.84 µM
SR leukemia
  TGI: > 100 µM
DU-145 prostate
  TGI: 31.1 µM
CCRF-CEM leukemia
  TGI: 4.03 µM
MDA-N
  TGI: 16.1 µM
KM20L2 colon
  TGI: 58.2 µM
RXF-631 renal
  TGI: 30.4 µM
TK-10 renal
  TGI: 8.72 µM
BT-549 breast
  TGI: 3.5 µM
DLD-1 colon
  TGI: 1.83 µM
NCI-H460 lung
  TGI: 49 µM
LXFL 529 NSCLC
  TGI: 2.96 µM
SF-539 CNS
  TGI: 7.45 µM
OVCAR-3 ovarian
  TGI: 8.21 µM
SNB-75 CNS
  TGI: 29.9 µM
COLO 205 colon
  TGI: 6.21 µM
CAKI-1 renal
  TGI: 1.57 µM
MDA-MB-435
  TGI: 27.5 µM
SF-295 CNS
  TGI: 50.5 µM
OVCAR-4 ovarian
  TGI: 5.44 µM
